Test results as given in US7879792B2, “Synthetic peptide inhibitors of thrombin and thrombin activation of protease activated receptors 1 and 4” (The Regents of the University of Michigan, priority 2005, dated 2011).
Like-named read-outs stand apart in the source and are kept apart here. Where a SMILES comes first, the peptide text is derived from it.

Assays:
[1] = test system: γ-thrombin-induced platelet aggregation; assay: γ-thrombin-induced platelet aggregation in human platelet-rich plasma; format: cell-based; conditions: for Concentration of Peptide [mM] That Gives 100% Inhibition: 40 nM human gamma thrombin, human platelet-rich plasma; for concentration that abolished γ-thrombin-induced platelet aggregation: 40 nM γ-thrombin
Description: Fresh whole blood was collected and mixed with 0.013 M sodium citrate and platelet-rich plasma was prepared according to the method of Meloni et al., J. Biol. Chem. 266, 6786 (1991). Platelet-rich plasma with a normalized platelet count between 2-2.5×10^8 platelets/ml was added to a cuvette of an aggregometer (Chronlog Corp., Havertown, Pa.), standardized using the protocol of Meloni et al., supra. Peptides to be examined were added to the cuvette and the mixture stabilized for a few moments. Once the baseline was stabilized, γ-thrombin (10-70 nM) (Haematologic Technologies, Essex Junction, Vt.) was added to determine the minimal concentration of the agonist necessary to achieve full platelet aggregation. All investigations with peptides were performed using threshold concentrations of γ-thrombin. Aggregation was allowed to proceed for 5 minutes before stopping.
Table III is a tabulation of the library of peptides prepared and their influence on γ-thrombin-induced platelet aggregation in platelet-rich plasma. […] The numbers in the column represent the minimal concentration (mM) of the peptide that blocked 100% γ-thrombin-induced platelet aggregation of platelets in human platelet-rich plasma.
Human platelet samples were stimulated with 40 nM human gamma thrombin in each experiment.

[2] = test system: normal human citrated plasma; assay: thrombin clotting time (TCT); format: biochemical; conditions: 1 nM thrombin
Description: (§1) The influence of the various peptide formulations used in the present invention on established coagulation-based assays was determined. The activated partial thromboplastin time (APTT) is performed by mixing 0.05 ml normal human citrated plasma with 0.05 ml activated partial thromboplastin reagent purchased from Organon Teknika, Research Triangle Park, NC in the absence or presence of a peptide inhibitor. After incubation for 5 min at 37° C., the mixture is recalcified with 0.05 ml of 30 mM calcium chloride and the time to clot formation is measured in an Amelung KC4A instrument (Sigma Chemical Corp, St. Louis, Mo.) (Hasan et al. Thrombosis and Haemostasis. 82, 1182-1187 (1999)). The prothrombin time (PT) is performed by mixing 0.05 ml normal human citrated plasma with 0.05 ml Simplastin (Organon Teknika, Research Triangle Park, NC) followed by incubation for 3 min at 37° C. in the absence or presence of a peptide inhibitor. At the addition of 0.05 ml of 30 mM calcium chloride, the time to clot formation is measured in an KC4A instrument (Sigma Chemical Corp, St. Louis, Mo.) (Hasan et al. Thrombosis and Haemostasis. 82, 1182-1187 (1999)). The thrombin clotting time (TCT) is performed by adding 0.1 ml normal human citrated plasma in the absence or presence of a peptide inhibitor and 0.05 ml of a α-thrombin solution such that the final concentration of the thrombin in the entire mixture was 1 nM. Upon addition of the thrombin, the time to clot formation is measured in an KC4A instrument (Sigma Chemical Corp, St. Louis, Mo.).

[3] = test system: normal human lung fibroblasts (NHLF); assay: α-thrombin-induced calcium mobilization in normal human lung fibroblasts; format: cell-based; conditions: 2 nM alpha thrombin
Description: The second assay developed to assess peptides from the combinatorial libraries uses inhibition of α-thrombin-induced calcium mobilization in fibroblasts. Normal human lung fibroblasts (NHLF) were purchased from Clonetics, San Diego, Calif., an affiliate of Bio-Wittaker, Walkersville, Md. The cytoplasmic free Ca^2+ concentration ([Ca^2+]i) was measured using the fluorescent Ca^2+ indicator fura-2 (Molecular Probes, Inc., Eugene, Oreg.). Suspension of fibroblasts in Hepes-Tyrode's buffer were loaded with fura-2 by incubation at 37° C. with 2 μM fura-2/acetoxymethyl ester for 45 minutes according to the method of Rasmussen et al., J. Biol. Chem. 268, 14322 (1993). The labeled fibroblasts were separated from excess probe by washing by centrifugation at 1000 rpm (180 xg). Aliquots of the labeled fibroblasts were transferred into a quartz cuvette with a magnetic stirrer, which was then placed in a thermostatically controlled chamber at 37° C. in a fluorescence spectrophotometer (Perkin-Elmer LS50B spectrofluorometer, Chicago, Ill.). Reagents, test peptide, and α-thrombin (0.25-2 nM), were sequentially added directly to the cuvette. The excitation wavelengths varied between 340 and 380 nm. Fluorescence was measured by recording emitted light at 510 nm as reported by Fisher et al., Mol Pharm. 35, 195 (1989). The minimum emission was determined on a solubilized fibroblast sample in the presence of 10 mM EDTA; maximum emission was determined on the same sample with 10 mM Ca^2+ added. The intrafibroblast free Ca^2+ concentration was calculated by the method of Grykiewicz et al., J. Biol. Chem. 260, 3440 (1985). The ratio of the fluorescence readings was calculated as R=340/380 nm and processed according to the equation [Ca^2+]i=KD((R−Rmin)/Rmax−R))(Sf2/Sb2) to determine the intrafibroblast free Ca^2+ concentration. The KD for fura-2 was assumed to be 224 nM. Rmax and Rmin are the maximum and minimum fluorescence ratios measured at the end of the experiment, respectively; Sf2 and Sb2 are the fluorescence values at 380 nm in the absence and presence of saturating [Ca^2+], respectively. The reaction was monitored for 3-5 minutes.

[4] = test system: normal human citrated plasma; assay: prothrombin time (PT); format: biochemical
Description: as §1

[5] = molecular target: γ-thrombin; assay: inhibition of γ-thrombin hydrolysis of chromogenic substrate; format: biochemical, human; conditions: read-out: Ki (μM) + SD, γIIa (2 nM), gamma-thrombin 2 nM, Sar-Pro-Arg-paranitroanilide
[6] = molecular target: human α-thrombin (Homo sapiens, UniProt P00734); assay: inhibition of α-thrombin hydrolysis of chromogenic substrate; format: biochemical; conditions: Ki (μM) + SD, αIIa (2 nM), alpha-thrombin 2 nM, Sar-Pro-Arg-paranitroanilide
[7] = test system: normal human citrated plasma; assay: activated partial thromboplastin time (APTT); format: biochemical
Description: as §1

Row | SMILES | Concentration of Peptide [mM] That Gives 100% Inhibition [1] [mM] | concentration that abolished γ-thrombin-induced platelet aggregation [1] [µM] | peptide concentration with significant prolongation (p<0.05) of the TCT [2] [µM] | inhibition of thrombin-induced calcium mobilization ([3]; 0.005 mM peptide) [%] | inhibition of thrombin-induced calcium mobilization ([3]; 0.02 mM peptide) [%] | peptide concentration with significant prolongation (p<0.05) of the PT [4] [µM] | Ki [5] [µM] | Ki [6] [µM] | peptide concentration with significant prolongation (p<0.05) of the APTT [7] [µM] | Ki ([5]; listed as rOicPsF(p-I)) [µM] | Ki ([5]; listed as rOicPsF(p-NO2)) [µM]
1 | C[C@@H](NC(=O)[C@@H]1CCCN1C(=O)[C@@H]1C[C@@H]2CCCC[C@@H]2N1C(=O)[C@H](N)CCCNC(=N)N)C(=O)N[C@@H](Cc1ccc(Br)cc1)C(N)=O [rOicPaF(p-Br), D-Arg-Oic-Pro-D-Ala-Phe(p-Br)] (HELM PEPTIDE1{[dR].[O=C([C@@H]1C[C@@H]2CCCC[C@@H]2N1[*:1])[*:2]].P.[dA].[O=C([C@H](Cc1ccc(Br)cc1)N[*:1])[*:2]].[am]}$$$$V2.0) | 0.018 | 18 | 0.78 | 35 | 84 | 6.25 | 48.7 ± 7 | 6.4 to 10.6 | 12.5 | – | –
2 | C[C@@H](NC(=O)[C@@H]1CCCN1C(=O)[C@@H]1C[C@@H]2CCCC[C@@H]2N1C(=O)[C@H](N)CCCNC(=N)N)C(=O)N[C@@H](Cc1ccc(I)cc1)C(N)=O [rOicPaF(p-I), D-Arg-Oic-Pro-D-Ala-Phe(p-I)] (HELM PEPTIDE1{[dR].[O=C([C@@H]1C[C@@H]2CCCC[C@@H]2N1[*:1])[*:2]].P.[dA].[O=C([C@H](Cc1ccc(I)cc1)N[*:1])[*:2]].[am]}$$$$V2.0; N-terminus assumed) | 0.023 | 23 | 0.78 | 36 | 88 | 6.25 | – | – | 25 | 59.2 ± 13 | –
3 | C[C@@H](NC(=O)[C@@H]1CCCN1C(=O)[C@@H]1C[C@@H]2CCCC[C@@H]2N1C(=O)[C@H](N)CCCNC(=N)N)C(=O)N[C@@H](Cc1ccc([N+](=O)[O-])cc1)C(N)=O [rOicPaF(p-NO2), D-Arg-Oic-Pro-D-Ala-Phe(p-NO2)] (HELM PEPTIDE1{[dR].[O=C([C@@H]1C[C@@H]2CCCC[C@@H]2N1[*:1])[*:2]].P.[dA].[O=C([C@H](Cc1ccc([N+](=O)[O-])cc1)N[*:1])[*:2]].[am]}$$$$V2.0; N-terminus assumed) | 0.033 | 33 | 1.56 | 26 | 47 | 6.25 | – | – | 50 | – | 87.9 ± 16
